The source made the active and inactive calls.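 The calls were made as follows: active = compounds giving half or more protection of infected cells from virus-caused growth loss, again on retest; inactive = the rest.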 Where a SMILES comes first, the peptide text is derived from it. The star is where a group is joined. OSu = O=C1CCC(=O)N1O*
System: CEM cells HIV-1 protection, formazan growth assay
Test: NCI AIDS Antiviral Assay
Settings: for IC50: measured here: growth of uninfected CEM cells
Procedure, shortened: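 Human CEM cells, uninfected and HIV-1-infected, exposed to five drug concentrations; growth measured by soluble formazan assay and scored as percent protection from infection, with protecting compounds retested.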

N#CC(F)(F)C(F)(F)C(F)(F)C(F)(F)C(F)(F)C(F)(F)C(F)(F)F
EC50: > 200 µM
IC50: > 200 µM

CC(C)(C)SSCCN
EC50: > 200 µM
IC50: > 200 µM

O=C(O)c1c(-c2ccccc2)nn2c1ccc1ccccc12
EC50: > 200 µM
IC50: > 100 µM

NC(CCOCCP(=O)(O)CCOCCC(N)C(=O)O)C(=O)O (stereo not drawn)
EC50: > 200 µM
IC50: > 200 µM

COC(=O)c1sc(C(=O)OC)c2c1CS(=O)C2
outcome: inactive

CC(C(=O)O)c1cnn(-c2ccccc2)c1-n1cccc1 (stereo not drawn)
outcome: inactive

CC(=O)C1=C(C)Cn2c(=O)c3ccccc3c(=O)n2C1
EC50: > 95.5 µM
IC50: > 95.5 µM

O=C(/C=C/c1ccccc1Cl)c1ccc(Cl)c(Cl)c1
EC50: > 8.71 µM
IC50: > 8.71 µM

CN1C(=O)c2c(c3c4ccccc4n(C4OC(CO)C(O)C(O)C4O)c3c3[nH]c4ccccc4c23)C1=O (stereo not drawn)
EC50: > 200 µM
IC50: 3.89 µM

C=CCC1(C#N)C(=S)NC2=C(C(=O)CC(C)(C)C2)C1c1ccccc1 (stereo not drawn)
EC50: > 200 µM
IC50: > 200 µM

Cc1ccccc1NC(=O)Cc1csc(N/N=C2\NC(=O)/C(=C/c3cccc([N+](=O)[O-])c3)S2)n1
EC50: > 200 µM
IC50: > 100 µM

CC(C)=[CH][Sb]([Br])([CH]=C(C)C)([CH]=C(C)C)[CH]=C(C)C
EC50: > 589 µM
IC50: 3.02 µM

N#CNC(N)=Nc1ccc(Cl)cc1
outcome: inactive

Cc1ccc(SSC(=S)Nc2ccccc2)cc1
outcome: inactive

CC(=O)Nc1[nH]n(C)c(=O)c1-c1nnc(C)s1
EC50: > 977 µM
IC50: 437 µM

O=C1/C(=C/c2ccc(OC(=O)c3ccc(Cl)cc3)cc2)CCC/C1=C\c1ccc(OC(=O)c2ccc(Cl)cc2)cc1
EC50: > 100 µM
IC50: > 100 µM

O=S(=O)([O-])c1ccc2c(N=Nc3ccc(/C=C\c4ccc(N=Nc5c([O-])ccc6cc(S(=O)(=O)[O-])ccc56)cc4S(=O)(=O)[O-])c(S(=O)(=O)[O-])c3)c([O-])ccc2c1.[Cu+2].[Cu+2].[Na+]
EC50: > 19.1 µM
IC50: 15.8 µM

O=C1COc2cc(N3CCN(c4cccc(C(F)(F)F)c4)CC3)ccc2N1
EC50: > 200 µM
IC50: > 200 µM

COc1ccc(/C=C/C(=O)CC(=O)/C=C/c2ccc(OC)cc2)cc1
EC50: > 200 µM
IC50: > 200 µM

COc1cccc(/C=C/c2nccc3ccccc23)c1OC
EC50: > 200 µM
IC50: 12.9 µM

C1CCN2CC3CONC3C2C1 (stereo not drawn)
EC50: > 1480 µM
IC50: > 1480 µM

c1ccc2c(c1)n1c(N3CCOCC3)[n+]3ccccc3c1c1c3cccc[n+]3c(N3CCOCC3)n21
EC50: 123 µM
IC50: 145 µM

CN[C@@H]1C[C@H]2O[C@@](C)([C@@H]1OC)n1c3ccccc3c3c4c(c5c6ccccc6n2c5c31)C(=O)N[C@@H]4O
EC50: > 38.9 µM
IC50: 0.0309 µM

CCCCCCCCCCCCCC(=O)NO
EC50: > 20.4 µM
IC50: > 20.4 µM

NCCCCC(NC(=O)C(N)Cc1ccc(O)cc1)C(=O)NC(Cc1ccc(O)cc1)C(=O)NC(CCCCN)C(=O)ON1C(=O)CCC1=O (stereo not drawn) (H-YKYK-OSu; configuration not given here)
EC50: > 200 µM
IC50: > 200 µM

COC(=O)C(Cc1c[nH]c2ccccc12)NP(=O)(O)OCC1OC(n2cc(F)c(=O)[nH]c2=O)CC1O (stereo not drawn)
EC50: > 200 µM
IC50: > 200 µM

C/C=C1\CNC1C(=O)O (stereo not drawn)
EC50: > 200 µM
IC50: > 200 µM

CN1CCN(c2c(Cl)cc(Cl)c3[nH]c4ccccc4c(=O)c23)CC1
EC50: > 2 µM
IC50: 0.977 µM

O=C(O)c1ccc2nc(-c3ccccn3)c(-c3ccccn3)nc2c1
EC50: > 200 µM
IC50: > 200 µM

CCOC(=O)C(NC(C)=O)[CH](c1ccccc1)[Sn]([c]1ccccc1)([c]1ccccc1)[c]1ccccc1 (stereo not drawn)
EC50: > 31.6 µM
IC50: 7.08 µM

O=C(CC(=O)N1N=C(N2c3ccccc3Sc3ccccc32)CC1c1ccccc1)Nc1ccccc1Cl (stereo not drawn)
EC50: > 200 µM
IC50: > 200 µM

Nc1n[nH]c2c(C(=O)Nc3ccc(Cl)cc3)c(N)n(N)c(=O)c12
EC50: > 200 µM
IC50: > 200 µM

COC(=O)Cc1cc(=O)n2c([nH]c3ccccc32)c1C#N
EC50: > 25.7 µM
IC50: > 25.7 µM

CCOC(=O)N[C@@H]1C2CC(=O)C(O2)[C@@H]1OC (stereo partly drawn)
outcome: inactive

CCN(CC)c1ccc(N=C2C=CC(=C(C#N)C#N)c3ccccc32)c(C)c1
outcome: inactive

CCOC(=O)/C(=C/c1ccc(Cl)cc1)N(CC)CC
EC50: > 126 µM
IC50: > 126 µM

C=CCSS(=O)CC=C (stereo not drawn)
outcome: inactive

O=c1[nH]c2cccnc2c(=O)n1O
EC50: > 200 µM
IC50: 69.2 µM

O=C1C=CC(=O)C2C1Cc1ccccc1C2c1ccccc1 (stereo not drawn)
outcome: inactive

Cn1c(=O)[nH]c(=O)c2[nH]c(=O)c(=O)n(C)c21
EC50: > 200 µM
IC50: > 200 µM

O=C(N/N=C(\c1ccccc1)c1ccccn1)NC1CCCCC1
outcome: inactive

COc1ccc(/C=C2\N=C(c3ccccc3)N(Nc3nnc(NN4C(=O)/C(=C/c5ccc(OC)cc5)N=C4c4ccccc4)c4ccccc34)C2=O)cc1
outcome: inactive

C=CC[C@]1(C(C)Cc2ccc(OC)c(OC)c2)C[C@@H](OC)C=CC1=O (stereo partly drawn)
EC50: > 10 µM
IC50: 2.88 µM

Cn1c(=S)c2c(nc(SCCc3ccccc3)n2CCc2ccccc2)n(C)c1=O
EC50: > 200 µM
IC50: 29.5 µM
